Legend:
[1] = biological target: T1, sGC α1/β1 heterodimer (Homo sapiens, UniProt Q02108+Q02153); assay: Cell-Based sGC Functional Assay (CASA Assay), cGMP by HTRF in CHO-K1/sGC cells; settings: for Emax: CHO-K1, percent activation relative to maximum cGMP production of Compound A (= 100%), read-out: % Act.; for EC50: cGMP production, 1 hr at 37° C., 4P fit, presence or absence of 1 μM DETA-NO not given, read-out: IP (nM) (inflection point)
T1 construct: expressed in transfected cells; host or cells: CHO-K1 (clone #7, CHO-K1/sGC)
T1 sequence (Q02108 1-690): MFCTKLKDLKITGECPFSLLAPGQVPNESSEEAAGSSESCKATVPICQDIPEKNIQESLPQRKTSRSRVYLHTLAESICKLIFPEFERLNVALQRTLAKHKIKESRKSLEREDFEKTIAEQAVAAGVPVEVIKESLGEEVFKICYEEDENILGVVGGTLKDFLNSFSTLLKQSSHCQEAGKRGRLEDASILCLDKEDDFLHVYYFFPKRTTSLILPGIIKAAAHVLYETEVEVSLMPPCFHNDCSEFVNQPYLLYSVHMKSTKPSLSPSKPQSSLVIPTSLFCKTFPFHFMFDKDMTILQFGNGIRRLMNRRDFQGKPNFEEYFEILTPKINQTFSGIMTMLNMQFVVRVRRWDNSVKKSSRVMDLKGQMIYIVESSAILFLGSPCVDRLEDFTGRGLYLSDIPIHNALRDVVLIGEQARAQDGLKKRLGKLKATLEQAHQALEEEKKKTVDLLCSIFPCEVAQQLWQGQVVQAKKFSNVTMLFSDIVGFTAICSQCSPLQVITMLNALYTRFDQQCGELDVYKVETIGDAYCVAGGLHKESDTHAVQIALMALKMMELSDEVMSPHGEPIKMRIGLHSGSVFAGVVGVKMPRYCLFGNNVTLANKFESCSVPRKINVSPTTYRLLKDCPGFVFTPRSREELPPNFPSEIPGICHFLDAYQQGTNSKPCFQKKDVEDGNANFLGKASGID
T1 sequence (Q02153 1-619): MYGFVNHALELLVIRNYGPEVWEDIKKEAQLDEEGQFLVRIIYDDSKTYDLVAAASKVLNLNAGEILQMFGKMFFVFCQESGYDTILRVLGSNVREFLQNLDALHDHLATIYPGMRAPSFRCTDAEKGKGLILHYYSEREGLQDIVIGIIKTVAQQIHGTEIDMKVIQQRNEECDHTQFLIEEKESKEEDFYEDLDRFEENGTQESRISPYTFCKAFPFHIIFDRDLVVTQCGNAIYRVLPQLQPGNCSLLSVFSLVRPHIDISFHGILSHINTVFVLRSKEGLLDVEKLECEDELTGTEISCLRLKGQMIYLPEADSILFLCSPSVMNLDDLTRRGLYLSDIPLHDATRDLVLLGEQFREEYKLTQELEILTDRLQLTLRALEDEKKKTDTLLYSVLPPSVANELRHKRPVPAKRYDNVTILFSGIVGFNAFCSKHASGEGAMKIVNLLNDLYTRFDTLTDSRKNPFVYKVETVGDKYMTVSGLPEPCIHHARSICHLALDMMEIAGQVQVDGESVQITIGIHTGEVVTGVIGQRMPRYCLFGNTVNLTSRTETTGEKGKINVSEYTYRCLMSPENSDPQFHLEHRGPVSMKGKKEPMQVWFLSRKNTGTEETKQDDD
In short: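 CHO-K1 cells stably expressing human sGC α1/β1, in EBSS buffer with 5 mM MgCl2, 10 mM HEPES, 0.05% BSA and 0.5 mM IBMX, incubated with compound (2.5% DMSO) ± 1 μM DETA-NO, 1 h, 37 °C. Intracellular cGMP read by HTRF; activity as % of reference activator maximum, IP from 4-parameter fit.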

[2] = tested on: Spontaneously hypertensive rats (SHR); assay: Acute Efficacy in Spontaneously Hypertensive Rats (SHR), telemetry blood pressure; assay type: in vivo, rat; settings: SHR male
Description: Acute Efficacy in Spontaneously Hypertensive Rats (SHR)
Spontaneously hypertensive rats (SHR, male, Charles River) were implanted with DSI TA11PA-C40 telemetry device (Data Sciences, Inc., St. Paul, Minn.) under isoflurane or ketamine/metomidine anesthesia. The telemetry unit catheter was inserted into the descending aorta via the femoral artery and the telemetry device was implanted subcutaneously in the left flank area. Animals were allowed to recover from surgery for 14 days before the start of any studies. Blood pressure, heart rate, and activity signals from conscious, freely moving rats were recorded continuously for 30 seconds every 10 minutes. On the day prior to administration of compound, a single oral dose of vehicle (10% transcutol/20% Cremophor/70% water) was administered to all animals to establish baseline control data. The blood pressure lowering efficacy of compound (PO) or vehicle was evaluated following a single oral gavage. Data were collected as hourly averages, and changes in blood pressure were calculated by subtracting control baseline data on an hourly basis. Animals were maintained on normal diet with a 12 hour light-dark cycle.
Maximum peak decreases of systolic blood pressure (SBP) in SHR at a particular P.O. dose (mpk milligrams per kilogram) for the following representative compounds are provided. • Category A=SBP in SHRs<20 mmHg; Category B=SBP in SHRs 20-40 mmHg; • Category C=SBP in SHRs>40 mmHg

SMILES | Emax [1] | EC50 [1] | Cat. (maximum peak decrease of systolic blood pressure (SBP) in SHR) ([2]; single oral dose 3.0 mpk P.O.) | Cat. (maximum peak decrease of systolic blood pressure (SBP) in SHR) ([2]; single oral dose 1.0 mpk P.O.) | Cat. (maximum peak decrease of systolic blood pressure (SBP) in SHR) ([2]; single oral dose 0.3 mpk P.O.) | Cat. (maximum peak decrease of systolic blood pressure (SBP) in SHR) ([2]; single oral dose 2.0 mpk P.O.)
O=C1Nc2nc(-c3cn4ccnc4c(CCCC(F)(F)F)n3)ncc2C1(c1ccc(OC(F)(F)F)cc1)C1CC1 (centres unmarked) [Example 52A, 5-cyclopropyl-2-(8-(4,4,4-trifluorobutyl)imidazo[1,2-a]pyrazin-6-yl)-5-(4-(trifluoromethoxy)phenyl)-5H-pyrrolo[2,3-d]pyrimidin-6(7H)-one] | 155% | 791 nM | A (Category A=SBP in SHRs<20 mmHg) | – | – | –
O=C1Nc2nc(-c3cn4ccnc4c(CCCC(F)(F)F)n3)ncc2C1(c1ccc(Cl)cc1)C1CC1 (centres unmarked) [Example 50B, 5-(4-chlorophenyl)-5-cyclopropyl-2-(8-(4,4,4-trifluorobutyl)imidazo[1,2-a]pyrazin-6-yl)-5H-pyrrolo[2,3-d]pyrimidin-6(7H)-one] | 155% | 63 nM | – | B (Category B=SBP in SHRs 20-40 mmHg) | – | –
CCCc1nc(-c2ncc3c(n2)NC(=O)C3(C)c2ccc(Cl)c(F)c2)cn2ccnc12 (centres unmarked) [Example 38B, 5-(4-chloro-3-fluorophenyl)-5-methyl-2-(8-propylimidazo[1,2-a]pyrazin-6-yl)-5H-pyrrolo[2,3-d]pyrimidin-6(7H)-one] | 135% | 173 nM | – | A (Category A=SBP in SHRs<20 mmHg) | – | –
CC1(c2ccc(F)cn2)C(=O)Nc2nc(-c3cn4ccnc4c(CC4CCC4)n3)ncc21 (centres unmarked) [Example 65B, 2-(8-(cyclobutylmethyl)imidazo[1,2-a]pyrazin-6-yl)-5-(5-fluoropyridin-2-yl)-5-methyl-5H-pyrrolo[2,3-d]pyrimidin-6(7H)-one] | 102% | 71 nM | – | – | B (Category B=SBP in SHRs 20-40 mmHg) | –
O=C1Nc2nc(-c3cn4ccnc4c(CCCC(F)(F)F)n3)ncc2C1(c1ccc(Cl)cn1)C1CC1 (centres unmarked) [Example 9A, 5-(5-chloropyridin-2-yl)-5-cyclopropyl-2-(8-(4,4,4-trifluorobutyl)imidazo[1,2-a]pyrazin-6-yl)-5H-pyrrolo[2,3-d]pyrimidin-6(7H)-one] | 120% | 74 nM | – | – | – | B (Category B=SBP in SHRs 20-40 mmHg)
CCCCc1nc(-c2ncc3c(n2)NC(=O)C3(c2ccc(Cl)cn2)C2CC2)cn2ccnc12 (centres unmarked) [Example 55A, 2-(8-butylimidazo[1,2-a]pyrazin-6-yl)-5-(5-chloropyridin-2-yl)-5-cyclopropyl-5H-pyrrolo[2,3-d]pyrimidin-6(7H)-one] | 188% | 73 nM | – | – | – | B (Category B=SBP in SHRs 20-40 mmHg)
O=C1Nc2nc(-c3cn4ccnc4c(CCC(F)(F)C(F)(F)F)n3)nc(O)c2C1(c1ccc(F)cc1)C1CC1 (centres unmarked) [Example 12B, 5-cyclopropyl-5-(4-fluorophenyl)-4-hydroxy-2-(8-(3,3,4,4,4-pentafluorobutyl)imidazo[1,2-a]pyrazin-6-yl)-5H-pyrrolo[2,3-d]pyrimidin-6(7H)-one] | 92% | 525 nM | A (Category A=SBP in SHRs<20 mmHg) | – | – | –
CC1(c2ccc(Cl)cc2)C(=O)Nc2nc(-c3cn4ccnc4c(CCCC(F)(F)F)n3)nc(O)c21 (centres unmarked) [Example 26A, 5-(4-chlorophenyl)-4-hydroxy-5-methyl-2-(8-(4,4,4-trifluorobutyl)imidazo[1,2-a]pyrazin-6-yl)-5H-pyrrolo[2,3-d]pyrimidin-6(7H)-one] | 90% | 200 nM | C (Category C=SBP in SHRs>40 mmHg) | – | – | –
CC1(c2ccc(Cl)cn2)C(=O)Nc2nc(-c3cn4ccnc4c(CC4CCC4)n3)nc(O)c21 (centres unmarked) [Example 27A, 5-(5-chloropyridin-2-yl)-2-(8-(cyclobutylmethyl)imidazo [1,2-a]pyrazin-6-yl)-4-hydroxy-5-methyl-5H-pyrrolo[2,3-d]pyrimidin-6(7H)-one] | 95% | 645 nM | B (Category B=SBP in SHRs 20-40 mmHg) | – | – | –
CC1(c2ccc(F)cn2)C(=O)Nc2nc(-c3cn4ccnc4c(CCC(F)(F)C(F)(F)F)n3)ncc21 (centres unmarked) [Example 62B, 5-(5-fluoropyridin-2-yl)-5-methyl-2-(8-(3,3,4,4,4-pentafluorobutyl)imidazo[1,2-a]pyrazin-6-yl)-5H-pyrrolo[2,3-d]pyrimidin-6(7H)-one] | 98% | 104 nM | – | B (Category B=SBP in SHRs 20-40 mmHg) | – | –
CC(C)Cc1nc(-c2ncc3c(n2)NC(=O)C3(C)c2ccc(Cl)cn2)cn2ccnc12 (centres unmarked) [Example 41A, 5-(5-chloropyridin-2-yl)-2-(8-isobutylimidazo[1,2-a]pyrazin-6-yl)-5-methyl-5H-pyrrolo[2,3-d]pyrimidin-6(7H)-one] | 111% | 235 nM | A (Category A=SBP in SHRs<20 mmHg) | – | – | –
CCCCc1nc(-c2ncc3c(n2)NC(=O)C3(c2ccc(Cl)cc2)C2CC2)cn2ccnc12 (centres unmarked) [Example 49B, 2-(8-butylimidazo[1,2-a]pyrazin-6-yl)-5-(4-chlorophenyl)-5-cyclopropyl-5H-pyrrolo[2,3-d]pyrimidin-6(7H)-one] | 157% | 24 nM | – | B (Category B=SBP in SHRs 20-40 mmHg) | – | –
CC1(c2ccc(F)cn2)C(=O)Nc2nc(-c3cn4ccnc4c(CCC(F)(F)C(F)(F)F)n3)nc(C3CC3)c21 (centres unmarked) [Example 71B, 4-Cyclopropyl-5-(5-fluoropyridin-2-yl)-5-methyl-2-(8-(3,3,4,4,4-pentafluorobutyl)imidazo[1,2-a]pyrazin-6-yl)-5H-pyrrolo[2,3-d]pyrimidin-6(7H)-one] | 135% | 23 nM | – | – | – | –
CCCOc1nc(-c2ncc3c(n2)NC(=O)C3(C)c2ccc(F)cc2)cn2ccnc12 (centres unmarked) [Example 92A, 5-(4-Fluorophenyl)-5-methyl-2-(8-propoxyimidazo[1,2-a]pyrazin-6-yl)-5H-pyrrolo[2,3-d]pyrimidin-6(7H)-one] | 83% | 282 nM | – | – | – | –
CC(C)C1(C)C(=O)Nc2nc(-c3cn4ccnc4c(Cc4ccccc4)n3)ncc21 (single isomer, unassigned) [Example 95A, 2-(8-Benzylimidazo[1,2-a]pyrazin-6-yl)-5-isopropyl-5-methyl-5H-pyrrolo[2,3-d]pyrimidin-6(7H)-one] | 113% | 36 nM | – | – | – | –
O=C1Nc2nc(-c3cn4ccnc4c(CCC(F)(F)C(F)(F)F)n3)nc(O)c2C1(c1ccc(Cl)cn1)C1CC1 (centres unmarked) [Example 8A, 5-(5-chloropyridin-2-yl)-5-cyclopropyl-4-hydroxy-2-(8-(3,3,4,4,4-pentafluorobutyl)imidazo[1,2-a]pyrazin-6-yl)-5H-pyrrolo[2,3-d]pyrimidin-6(7H)-one] | 142% | 1180 nM | – | – | – | –
